# Measurements taken from patent US10632170B2, “Administration of compstatin to an individual for the treatment of a tumor” (The Trustees of the University of Pennsylvania, priority 2008, dated 2020).
# T1: C5aR (Mus musculus, UniProt P30993)
# T1 construct: endogenous in cells; host or cells: host cells of living C57BL/6J mice bearing TC-1 tumours (in vivo)
# T1 sequence (P30993 1-351): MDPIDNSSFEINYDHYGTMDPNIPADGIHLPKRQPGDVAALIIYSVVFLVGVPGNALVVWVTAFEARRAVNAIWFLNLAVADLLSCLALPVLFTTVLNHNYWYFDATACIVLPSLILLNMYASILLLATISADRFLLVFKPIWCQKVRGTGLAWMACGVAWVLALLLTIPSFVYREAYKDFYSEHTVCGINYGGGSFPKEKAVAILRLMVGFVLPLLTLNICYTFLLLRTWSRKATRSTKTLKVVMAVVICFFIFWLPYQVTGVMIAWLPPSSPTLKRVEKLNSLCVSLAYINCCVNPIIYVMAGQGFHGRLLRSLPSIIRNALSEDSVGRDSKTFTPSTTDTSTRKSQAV
# B1: C5a: recombinant mouse C5a anaphylatoxin used to stimulate MDSCs in vitro (protein)
# chain: NLHLLRQKIEEQAAKYKHSVPKKCCYDGARVNFYETCEERVARVTIGPLCIRAFNECCTIANKIRKESPHKPVQLGR
# Legend:
# [1] = system: MDSCs obtained from tumors and spleens; assay: CD11b expression in MDSCs after stimulation in vitro (flow cytometry); format: cell-based, mouse; conditions: for CD11b upregulation in C5aR-deficient MDSCs: FIG. 6A-6D
# Protocol: Single-cell suspensions were pre-incubated with anti-mouse CD16/CD32 mAb (Fc block, 2.4G2; BD Pharmingen) to block Fcγ receptors, then incubated with primary antibody. Fluorochrome-conjugated mAbs against mouse CD3 (17A2), CD4 (L3T4), CD8 (53-6.7), CD11b (M1/70), CD25 (PC61), CD45 (30-F11), CD69 (H1.2F3) and Gr-1 (RB6-8C5), (all from BD Biosciences) were used according to the manufacturer's instructions. In order to determine C5aR cell-surface expression, cells were sequentially incubated with rabbit polyclonal anti-mouse C5aR (C1150-32, BD Biosciences) or rabbit isotype (BD Pharmingen, 550875) and FITC-conjugated anti-rabbit IgG (F0112, R&D Systems), or with rat anti-mouse C5aR (mAb clone 20/70 Hycult biotechnology b.v., distributor-Cell science Inc.) or rat isotype (BD Pharmingen, 553928) followed by FITC-conjugated anti-rat IgG (Zymed-Invitrogen). For some experiments cells were permeabilized with the use of fixation and perm/wash buffers (BD Biosciences) prior to C5aR staining. Stained cells were subjected to six-color flow cytometry on a FACSCanto flow cytometer (BD Biosciences) using FlowJo software (Tree Star Inc.).
# The migration of PMN-MDSCs to tumors requires crossing of the endothelial barrier by MDSCs. Leukocytes, in order to leave the circulation and migrate to interstitial tissues, require the interaction of their integrins with adhesion molecules on endothelial cells. It was hypothesized that the same mechanisms apply to MDSCs migrating to tumor tissue. Since CD11b is the αm subunit of integrin CR3, which interacts with ICAM-1 expressed on endothelial cells during leukocyte extravasation, the changes in CD11b expression were evaluated in MDSCs obtained from tumors and spleens after C5a stimulation in vitro.
# [2] = system: MDSCs from spleens and tumors; assay: ROS and RNS production in MDSCs after stimulation in vitro (H2DCFDA); format: cell-based, mouse; conditions: for ROS and RNS production in spleen MDSCs of C5aR-deficient mice: MDSCs from spleens of C5aR-deficient mice; for ROS and RNS production in tumor-associated MDSCs: either subpopulation, data not shown
# Protocol: The oxidation sensitive dye 2′-7′-dichloro dihydrofluorescein diacetate (H2DCFDA) (Molecular Probes) was used for the measurement of ROS and RNS production in cells isolated from tumors or spleens. The excised tumors and spleens were mechanically disintegrated to obtain a single-cell suspension. Cells resuspended in DMEM were incubated with 2 μM of dye at 37° C. for 15 min. After washing with PBS, cells were stained for flow cytometry analysis as described above. MDSCs were distinguished from other cells present in the cell suspension as a viable CD45^+CD11b^+Gr-1^+ cell population, and the fluorescence intensity was estimated in the channel suitable for FITC according to the manufacturer's instruction. The amounts of ROS and RNS in cells were proportional to the intensity of fluorescence and were expressed as median fluorescence for gated populations. For some experiments, in addition to incubation with H2DCFDA, freshly isolated cells were simultaneously stimulated by 1, 10, or 100 nM of recombinant mouse C5a expressed as previously described (Strey et al., 2003, J. Exp. Med. 198:913-923) or 1 μM of phorbol myristate acetate (PMA; Sigma-Aldrich). Preliminary experiments have shown that stimulation of cells with 10 nM C5a induced the highest induction of ROS and RNS production.
# To further verify the results obtained from these in vivo studies, MDSCs from spleens and tumors of wild-type mice were stimulated to produce ROS and RNS by incubating them with various concentrations of C5a in vitro. MDSCs isolated from C5aR-deficient mice were used as an additional control for these experiments. […] It was concluded that the unresponsiveness of tumor-associated MDSCs to in vitro C5a stimulation was a result of the strong stimulation of these cells for ROS and RNS production in vivo in the tumor microenvironment and the exhaustion of this system; therefore, further stimulation of these cells in vitro failed.
# C5aR = target: T1, C5aR; conditions: cited from earlier work
# TC-1 tumors [3] = assay: TC-1 syngeneic tumor growth in mice (tumor volumes); format: in vivo, mouse
# Protocol: To establish TC-1 tumors, male and female mice 6-16 weeks of age were anesthetized and injected subcutaneously (s.c.) with 1×10^5 TC-1 cells in the right or left rear flank. […] Beginning about 2 weeks after cell injection, mice were anesthetized, and their tumors were measured with calipers every 2-4 days until the tumor size required sacrificing of the animals. Measurements were taken in two dimensions (length and width) because the depth of the tumor was difficult to assess in live animals. The depth of the tumor was therefore estimated based on the smaller (width) measurement, and the volume of the tumor was calculated using the formula: (length×width×depth)±2. One hour prior to sacrifice, 5-bromo-2′-deoxyuridine (BrdU; Sigma) was injected intraperitoneally (i.p.) into mice at a single dose of 50 mg/kg for further assessment of tumor or immune cell proliferation. […] Excised tumors were measured in three dimensions to obtain an accurate volume and then weighed. Tumors and spleens were cut into sections for cell isolation, histologic examination, or freezing.
# Control mice in the experiments utilizing C5aR antagonist or Taxol were injected s.c., or i.p., respectively, with ˜400 μl PBS alone, or in some cases, s.c. with the cyclic hexapeptide AcF[OPdChaA(d)R] […] The pattern of the administration of this control peptide to mice followed that described for the C5aR antagonist.
# The effect of genotype or treatment on tumor growth (FIGS. 1-4) was analyzed with two-way analysis of variance (ANOVA) using GraphPad Prism (GraphPad Software, Inc.); the Bonferroni post-test correction was applied to control for the occurrence of false-positives. […] A p value equal to or less than 0.05 was considered significant.
# TC-1 tumors [4] = assay: Tumor cell proliferation, apoptosis and angiogenesis in end-point tumor specimens; format: in vivo, mouse; conditions: C5aR antagonist vs PBS
# Protocol: The morphology of tumors and spleens was assessed by light microscopy (Olympus BX 60) of hematoxylin and eosin-stained 5-μm paraffin sections. To assess the number of cells in the S phase of the cell cycle, paraffin sections from tumors and spleens were stained with anti-BrdU. The presence of apoptotic cells in tumor sections was determined by staining for the activated caspase-3 site on cytokeratin 18. Both assays were performed as described previously (Markiewski et al., 2004, J. Immunol. 173:747-754). The microvascular density of engrafted tumors was evaluated by immunofluorescent staining for CD31 expression on endothelial cells in frozen sections. The bound biotinylated anti-CD31 (MEC 13.3-BD Biosciences) was visualized with a streptavidin-rhodamine complex (BD Biosciences). Fluorescence was evaluated by standard fluorescent microscopy (Olympus BX 60 microscope). BrdU incorporation into tumor cells and the microvascular density of tumors were quantified in 5-10 microscopic fields (400× for BrdU and 100× for microvascular density) with the use of ImageJ image analysis software (NIH, Bethesda, Md.), and mean values were calculated. Apoptosis was assessed in a semi-quantitative manner: Scores from 0 to 4 were assigned to sections, depending on the size of the area occupied by apoptotic cells. All analyses were performed in a blinded fashion.
# TC-1 tumors [5] = assay: Immune cell infiltration of tumors (immunofluorescent staining for CD8, CD11b); format: in vivo, mouse
# Protocol: The deposition of C3 cleavage products in tumor tissue was detected using a rat anti-mouse C3 mAb (clone 2/11), as described previously (Mastellos et al, 2004, Mol. Immunol. 40:1213-1221). […] Therefore, the positive reactivity in the tissue is thought to be associated with the activation of the complement cascade and C3 cleavage. C1q and MBL deposition were evaluated with the use of a rat anti-mouse C1q mAb (Abeam, Inc.) and a polyclonal goat anti-mouse MBL (Santa Cruz Biotechnology, Inc.), respectively. These sections were co-stained with the use of biotinylated anti-mouse CD31 to visualize tumor vasculature. CD8^+ T cell and myeloid-origin cell infiltrations of tumors were analyzed using anti-mouse CD8 and anti-mouse CD11b, respectively. Isotypic rat IgGs were used as a negative control. Anti-CD31, anti-CD8 and anti-CD11b and isotype controls were purchased from BD Biosciences. Primary antibodies bound in tissue were detected with donkey anti-rat or anti-goat Cy2-conjugated antibodies (The Jackson Laboratory), except for anti-CD31, which was visualized with a streptavidin-rhodamine complex (BD Biosciences). Immunofluorescent staining was performed on frozen, 5-μm-thick sections. For detection of complement deposition, green and red fluorescence images were merged with the use of Spot software (Diagnostic instruments, Inc.). CD8^+ tumor infiltrates were quantified using ImageJ image analysis software (NIH), positive cells were counted in whole tissue sections and means were calculated. The magnitude of CD11b^+ infiltrates was assessed in a semi-quantitative manner because of the relatively low numbers of infiltrating cells. Scores from 0 to 5 were assigned to sections, according to the relative intensity of the infiltrates. In addition, the distribution of infiltrating cells was analyzed. All analyses were performed in a blinded fashion.
# arginase-1 = assay: Arginase-1 expression in tumor whole-cell extracts (immunoblot); format: in vivo, mouse; conditions: C5aR antagonist-treated vs control mice; without reaching statistical difference; FIG. 7F
# Protocol: Whole-cell extracts were prepared from tumor tissue mechanically disrupted in lysis buffer (20 mM HEPES, pH 7.4, 0.2 mM EDTA, 420 mM NaCl, 1.5 mM MgCl2, 20% glycerol) treated with protease and phosphatase inhibitors (1 mM DTT, 0.1 mM PMSF, 0.1 mM Na3VO4, 1 mM NaF, 1 mM β-glycerophosphate, and 2 μg/ml each of antipain dihydrochloride, aprotinin, bestatin and leupeptin). For each protein sample, 40 μg was electrophoresed on a 12% polyacrylamide gel and transferred to a PVDF membrane. Membranes were incubated overnight at 4° C. with mouse monoclonal arginase I (8C9) antibody (Santa Cruz Biotechnology) or mouse monoclonal β-actin (AC-15) antibody (Abeam). Primary antibody binding was detected using HRP-conjugated anti-mouse antibody (Bio-Rad Laboratories, Inc.) and chemiluminescence (Amersham Pharmacia Biotech, Inc.). Protein loading was normalized according to the abundance of β-actin, with Ponceau S-stained membranes used for verification. Protein expression was quantified by densitometry using ImageQuant software (Molecular Dynamics).
# [6] = according to the manufacturer; cited from earlier work
molecule,measurement,setting,value
"CCCCCCCCCCCCCC(=O)O[C@@H]1[C@@H](C)[C@@]2(O)[C@@H](C=C(CO)C[C@]3(O)C(=O)C(C)=C[C@@H]23)[C@@H]2C(C)(C)[C@]12OC(C)=O [PMA, phorbol myristate acetate]",CD11b upregulation in C5aR-deficient MDSCs,[1],response
same,ROS and RNS production in spleen MDSCs of C5aR-deficient mice,"[2]; FIG. 7H, 7I",brisk response
same,ROS and RNS production in tumor-associated MDSCs,[2],lack of an increase
AcF[OPdChaA(d)R],ability to block C5aR signaling,"C5aR; literature (Finch et al., 1999; Johswich et al., 2006)",does not have the ability to block C5aR signaling
Acetyl-Phe-[Orn-Pro-D-cyclohexylalanine-Trp-Arg] [C5aR antagonist],further inhibition of tumor growth in C5aR-deficient mice,"TC-1 tumors [3]; C5aR-deficient mice, in comparison to mice treated with control peptide",did not induce any further inhibition of tumor growth
same,tumor growth versus control mice treated with PBS,"TC-1 tumors [3]; wild-type mice, 1 mg/kg s.c. every 2-3 days beginning 1 week after tumor cell injection, FIG. 3A",impaired tumor growth
same,inhibition of tumor growth compared with Taxol treatment,"TC-1 tumors [3]; wild-type mice, C5aR antagonist 1 mg/kg s.c. vs Taxol 20 mg/kg i.p. once per week, FIG. 3A",comparable to that achieved by treatment with this anti-cancer therapeutic
same,"tumor cell proliferation and apoptosis, and the extent of angiogenesis",TC-1 tumors [4],only minimal differences
same,location of CD11b+ cells in tumors,"TC-1 tumors [5]; C5aR antagonist-treated mice, in control mice throughout the tumor sections",located only at the periphery of the tumors
same,number of cells expressing CD11b in tumor sections,"TC-1 tumors [5]; C5aR antagonist-treated vs PBS-treated mice, FIG. 5F",lower
same,CD8+ cells infiltrating the tumor tissue,"TC-1 tumors [5]; C5aR antagonist-treated vs control mice, FIG. 4A",heavily infiltrated by CD8^+ cells
same,arginase-1 expression in tumors,arginase-1,only slightly lower
same,blockade of C5a-mediated effects in rodent disease models,"C5aR; literature (Kohl et al., 2006; Holland et al.)",specifically block C5a-mediated effects
"CC(=O)O[C@H]1C(=O)[C@@]2(C)[C@H]([C@H](OC(=O)c3ccccc3)[C@]3(O)C[C@H](OC(=O)[C@H](O)[C@@H](NC(=O)c4ccccc4)c4ccccc4)C(C)=C1C3(C)C)[C@]1(OC(C)=O)CO[C@@H]1C[C@@H]2O [Taxol, Paclitaxel]",suppressive effect on tumor growth compared with genetic C5aR deficiency,"TC-1 tumors [3]; wild-type mice treated with Taxol vs C5aR-KO mice treated with PBS, FIG. 3C",similar
same,LD50,[6],128 mg/kg
B1,CD11b upregulation in C5aR-deficient MDSCs,[1],lack of CD11b upregulation
same,expression of CD11b in MO-MDSCs,"[1]; MO-MDSCs, 10 nM C5a, FIG. 6C, 6D",did not respond
same,expression of CD11b in wild-type PMN-MDSCs,"[1]; PMN-MDSCs from spleens and tumors, 10 nM C5a, FIG. 6A, 6B",significant increase
same,C5a concentration giving the highest induction of ROS and RNS production,"[2]; 1, 10 or 100 nM tested, preliminary experiments",10 nM
same,ROS and RNS production in spleen MDSCs of C5aR-deficient mice,"[2]; FIG. 7H, 7I",did not respond
same,ROS and RNS production in spleen MDSCs of wild-type mice,"[2]; both subpopulations, vs non-stimulated cells from the same mouse, FIG. 7H, 7I",increasing their ROS and RNS production
same,ROS and RNS production in tumor-associated MDSCs,[2],did not respond
